Data taken from patent publication US20230145305A1, “COMPOUNDS USEFUL AS KINASE INHIBITORS” (Fochon Biosciences, Ltd., priority 2020, published 2023).
pIC50: −log10 of the molar value.

What was measured:
OCI-LY10 cells = experiment: Cell proliferation assay (MTS) in OCI-LY10 cells; type: cell-based; details: Homo sapiens; inhibition of OCI-LY10 cells proliferation, 72 h incubation, MTS, absorbance at 490 nm; read-out: OCI-LY10 IC50
Outline: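 BTK-dependent OCI-LY10 proliferation: cells seeded at 10000/well, preincubated 4 h, then compound exposure 72 h at 37° C., 5% CO2. MTS added for 2 h and absorbance read at 490 nm; IC50 derived from the concentration-response.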

BTK (C481S) = target: T1, BTK (C481S) (Homo sapiens, UniProt Q06187, C481S); experiment: Kinase assay of BTK (C481S), [33P]-ATP filter-binding, Reaction Biology Corporation; type: biochemical; details: 6 nM BTK (C481S), 0.2 mg/ml pEY substrate, 10 μM ATP, 20 min preincubation, 120 min reaction at room temperature
T1 construct: purchased SignalChem B10-12CH
Description: The kinase activity of BTK (C481S) was assayed at Reaction Biology Corporation. The substrate in the BTK (C481S) reaction, pEY (poly[Glu:Tyr] (4:1)) (Sigma, Cat. #P7244-250MG), was prepared in fresh reaction buffer (20 mM Hepes (pH 7.5), 10 mM MgCl2, 1 mM EGTA, 0.02% Brij35, 0.02 mg/mi BSA, 0.1 mM Na3VO4, 2 mM DTT, 1% DMSO). BTK(C481S) (SignalChem, Cat. #B10-12CH) was delivered into the substrate solution and mixed gently. The final concentrations of BTK (C481S) and the substrate in the reaction mixture were 6 nM and 0.2 mg/ml, respectively. Compounds were tested in 10-point concentration/response mode with 3-fold serial dilution steps starting at 1 μM.
Compounds in 100% DMSO were delivered into the kinase reaction mixture by acoustic liquid delivery technology (Echo550; nanoliter range) and incubated for 20 min at room temperature. 10 μM [^33P]-ATP (ATP: Sigma, Cat #: A7699; [^33P]-ATP: Hartmann Analytic, Cat #: SCF-301-12) was delivered into the reaction mixture to initiate the reaction. The mixture was incubated for 120 min at room temperature. Radioactivity was detected utilizing a proprietary filter-binding method. Kinase activity data were expressed as the percent remaining kinase activity in test samples compared to vehicle (DMSO) reactions. IC50 values were obtained using GraphPad Prism software.
Select compounds prepared as described above were assayed according to the biological procedures described herein.

T1 sequence (Q06187 whole entry C481S): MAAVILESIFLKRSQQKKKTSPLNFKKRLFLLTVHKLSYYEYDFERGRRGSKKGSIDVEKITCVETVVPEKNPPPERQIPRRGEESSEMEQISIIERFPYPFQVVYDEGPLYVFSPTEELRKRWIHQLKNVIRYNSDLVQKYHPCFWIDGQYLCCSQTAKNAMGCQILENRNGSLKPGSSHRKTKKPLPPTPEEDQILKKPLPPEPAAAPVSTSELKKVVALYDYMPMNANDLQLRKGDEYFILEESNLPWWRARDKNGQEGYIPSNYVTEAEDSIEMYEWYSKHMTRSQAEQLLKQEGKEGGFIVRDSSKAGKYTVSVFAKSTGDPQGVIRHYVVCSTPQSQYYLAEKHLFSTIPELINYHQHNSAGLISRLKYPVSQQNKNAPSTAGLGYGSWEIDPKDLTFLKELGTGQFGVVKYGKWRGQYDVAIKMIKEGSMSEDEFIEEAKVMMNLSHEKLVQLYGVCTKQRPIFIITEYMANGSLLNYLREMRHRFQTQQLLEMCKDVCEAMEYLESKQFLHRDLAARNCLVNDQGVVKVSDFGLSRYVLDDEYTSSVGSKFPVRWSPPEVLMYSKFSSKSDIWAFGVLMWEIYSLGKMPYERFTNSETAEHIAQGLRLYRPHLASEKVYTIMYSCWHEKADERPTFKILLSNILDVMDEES

SMILES	pIC50 (OCI-LY10 cells)	pIC50 (BTK (C481S))
COc1ccccc1C(=O)NCc1ccc(-c2nc(C3CCCC3)n3ncnc(N)c23)cc1 [Example 6, N-(4-(4-amino-7-cyclopentylimidazo[5,1-f][1,2,4]triazin-5-yl)benzyl)-2-methoxybenzamide]	–	8.11
COc1ccccc1C(=O)NCc1ccc(-c2nn(C3CCCC3)c3c(=O)[nH]nc(N)c23)cc1 [Example 5, N-(4-(4-amino-1-cyclopentyl-7-oxo-6,7-dihydro-1H-pyrazolo[3,4-d]pyridazin-3-yl)benzyl)-2-methoxybenzamide]	7.17	8.10
COc1ccccc1C(=O)NCc1ccc(-n2nc(C3CCCC3)c3c(=O)[nH]nc(N)c32)cc1 [Example 2, N-(4-(7-amino-3-cyclopentyl-4-oxo-4,5-dihydro-1H-pyrazolo[3,4-d]pyridazin-1-yl)benzyl)-2-methoxybenzamide]	7.47	8.48
COc1ccccc1C(=O)NCc1ccc(-n2cc(C3CCCC3)c3c(=O)[nH]nc(N)c32)cc1 [Example 1, N-(4-(7-amino-3-cyclopentyl-4-oxo-4,5-dihydro-1H-pyrrolo[2,3-d]pyridazin-1-yl)benzyl)-2-methoxybenzamide]	7.55	8.30
COc1ccccc1C(=O)NCc1ccc(-c2cn(C3CCCC3)c3c(=O)[nH]nc(N)c23)cc1 [Example 4, N-(4-(4-amino-1-cyclopentyl-7-oxo-6,7-dihydro-1H-pyrrolo[2,3-d]pyridazin-3-yl)benzyl)-2-methoxybenzamide]	7.16	8.19

The next lines start with the values.

pIC50 (OCI-LY10 cells)	pIC50 (BTK (C481S))	SMILES
9.00	9.35	COc1ccc(F)cc1C(=O)NCc1ccc(-n2cc(C3CCCC3)c3c(=O)[nH]nc(N)c32)cc1 [Example 8, N-(4-(7-amino-3-cyclopentyl-4-oxo-4,5-dihydro-1H-pyrrolo[2,3-d]pyridazin-1-yl)benzyl)-5-fluoro-2-methoxybenzamide]
9.00	9.04	COc1ccc(F)cc1C(=O)NCc1ccc(-c2nn([C@H]3CCC[C@H]3F)c3c(=O)[nH]nc(N)c23)cc1 [Example 81, N-(4-(4-amino-1-((1S,2R)-2-fluorocyclopentyl)-7-oxo-6,7-dihydro-1H-pyrazolo[3,4-d]pyridazin-3-yl)benzyl)-5-fluoro-2-methoxybenzamide]
9.00	9.30	COc1ccc(F)cc1C(=O)NCc1ccc(-c2nn(C3CCCC3)c3c(=O)[nH]nc(N)c23)cc1 [Example 11, N-(4-(4-amino-1-cyclopentyl-7-oxo-6,7-dihydro-1H-pyrazolo[3,4-d]pyridazin-3-yl)benzyl)-5-fluoro-2-methoxybenzamide]
–	8.52	COc1ccccc1C(=O)NCc1ccc(-c2nc(C3CCCC3)n3ccnc(N)c23)cc1 [Example 7, N-(4-(8-amino-3-cyclopentylimidazo[1,5-a]pyrazin-1-yl)benzyl)-2-methoxybenzamide]
9.00	9.30	COc1ccc(F)cc1C(=O)NCc1ccc(-c2cn(C3CCCC3)c3c(=O)[nH]nc(N)c23)cc1 [Example 17, N-(4-(4-amino-1-cyclopentyl-7-oxo-6,7-dihydro-1H-pyrrolo[2,3-d]pyridazin-3-yl)benzyl)-5-fluoro-2-methoxybenzamide]
